System: HepaRG
Assay: LDH release cytotoxicity, % of total lysis control; higher = more cytotoxic
Details: 48 h
Outline: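 On collagen I-coated 96-well plates, single-lot HepaRG cells were exposed for 48 h, in duplicate, to eight-point half-log series of test chemicals beginning at 100 µM. The exposure medium was serum-free induction medium with 0.5% DMSO, and total lysis wells got 0.1% Triton X. Resorufin fluorescence from the CytoTox-ONE reaction, read on a Tecan Safire, reported LDH in 50 µL of spent medium. Percent cytotoxicity came from normalization to on-plate vehicle and total lysis controls, averaged over the duplicates.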

COP(=S)(OC)Oc1nc(Cl)c(Cl)cc1Cl [Chlorpyrifos-methyl]
Details	LDH release cytotoxicity [%]
0.0314647 µM	-1.653
0.0995 µM	-0.997
0.3146466 µM	-0.895
0.995 µM	-1.1
3.14647 µM	-1.09
9.95 µM	-0.401
31.4647 µM	0.323
99.5 µM	3.84

O=S(=O)(O)C(F)(F)C(F)(F)C(F)(F)C(F)(F)C(F)(F)C(F)(F)F [Potassium perfluorohexanesulfonate]
Details	LDH release cytotoxicity [%]
0.03162 µM	-0.914
0.1 µM	-1.15
0.3162278 µM	-1.06
1 µM	-1.98
3.16228 µM	-1.95
10 µM	-0.831
31.6228 µM	-1.52
100 µM	-0.438

CCCCC(CC)COC(=O)CCCCCCCCC(=O)OCC(CC)CCCC (configuration not stated) [Bis(2-ethylhexyl) decanedioate]
Details	LDH release cytotoxicity [%]
0.03162 µM	-11.5
0.1 µM	-10.5
0.3162278 µM	-10.7
1 µM	-10.2
3.16228 µM	-10.2
10 µM	-10.1
31.6228 µM	-9.5
100 µM	-8.97

CC1(C)C(C=C(Cl)Cl)C1C(=O)OCc1cccc(Oc2ccccc2)c1 (configuration not stated) [Permethrin]
Details	LDH release cytotoxicity [%]
0.03162 µM	-0.121
0.1 µM	-0.859
0.3162278 µM	-0.0615
1 µM	-1.15
3.16228 µM	-1.16
10 µM	-1.02
31.6228 µM	-1.28
100 µM	-0.44

N=C(Nc1ccccc1)Nc1ccccc1 [1,3-Diphenylguanidine]
Details	LDH release cytotoxicity [%]
0.03162 µM	-0.803
0.1 µM	-2.15
0.3162278 µM	-1.51
1 µM	-1.87
3.16228 µM	-1.59
10 µM	-1.1
31.6228 µM	-1.1
100 µM	0.505

CCCCC(CC)C(=O)O (configuration not stated) [2-Ethylhexanoic acid]
Details	LDH release cytotoxicity [%]
0.0327296 µM	-0.279
0.1035 µM	-1.03
0.327296 µM	-1.23
1.035 µM	-1.42
3.27296 µM	-1.45
10.35 µM	-1.29
32.729574 µM	-1.58
103.5 µM	-0.99

OCCO [Ethylene glycol]
Details	LDH release cytotoxicity [%]
0.0317809 µM	-0.738
0.1005 µM	-1.93
0.317809 µM	-2.04
1.005 µM	-2.45
3.17809 µM	-1.91
10.05 µM	-1.42
31.7809 µM	-1.26
100.5 µM	0.328

CCCCCCCC(=O)O [Octanoic acid]
Details	LDH release cytotoxicity [%]
0.03162 µM	-1.17
0.1 µM	-1.02
0.3162278 µM	-0.609
1 µM	-0.537
3.16228 µM	-0.391
10 µM	-0.933
31.6228 µM	-0.626
100 µM	0.799

CCCCCOC(C)=O [Pentyl acetate]
Details	LDH release cytotoxicity [%]
0.03162 µM	-10.9
0.1 µM	-10.5
0.3162278 µM	-10.2
1 µM	-11
3.16228 µM	-10.3
10 µM	-10.9
31.6228 µM	-10.3
100 µM	-10.02

CCCCC(CC)COC(=O)c1ccccc1C(=O)O (configuration not stated) [MEHP]
Details	LDH release cytotoxicity [%]
0.0320971 µM	-1.24
0.1015 µM	-1.27
0.320971 µM	-1.13
1.015 µM	-1.47
3.2097118 µM	-1.28
10.15 µM	-0.944
32.0971 µM	-1.07
101.5 µM	0.594

CCCCCCCCN(C)CCCCCCCC [N-Methyldioctylamine]
Details	LDH release cytotoxicity [%]
0.03162 µM	-0.874
0.1 µM	-1.29
0.3162278 µM	-1.43
1 µM	-1.23
3.16228 µM	-0.708
10 µM	-1.14
31.6228 µM	-0.369
100 µM	0.33

COC(=O)c1ccc(I)cc1S(=O)(=O)NC(=O)Nc1nc(C)nc(OC)n1 [Iodosulfuron-methyl-sodium]
Details	LDH release cytotoxicity [%]
0.03162 µM	-1.49
0.1 µM	-0.389
0.3162278 µM	-1.21
1 µM	-0.477
3.16228 µM	-0.16
10 µM	0.897
31.6228 µM	0.0334
100 µM	2.49

Clc1nc(Cl)c(Cl)c(Cl)c1Cl [Pentachloropyridine]
Details	LDH release cytotoxicity [%]
0.03162 µM	-0.545
0.1 µM	-1.54
0.3162278 µM	-1.28
1 µM	-1.08
3.16228 µM	-0.873
10 µM	-1.56
31.6228 µM	-0.833
100 µM	0.716

CC12CCC3c4ccc(O)cc4CCC3C1CCC2O (stereo not drawn) [17alpha-Estradiol]
Details	LDH release cytotoxicity [%]
0.03162 µM	-0.65
0.1 µM	-1.91
0.3162278 µM	-1.67
1 µM	-1.6
3.16228 µM	-1.26
10 µM	-1.72
31.6228 µM	-0.072
100 µM	1.51

COC(=O)c1ccccc1C(=O)O [Monomethyl phthalate]
Details	LDH release cytotoxicity [%]
0.031623 µM	-0.688
0.1 µM	-1.99
0.316228 µM	-2.92
1 µM	-2.55
3.16228 µM	-1.73
10 µM	-1.97
31.6228 µM	-0.563
100 µM	0.422

CCOC(=O)CC(SP(=O)(OC)OC)C(=O)OCC (configuration not stated) [Malaoxon]
Details	LDH release cytotoxicity [%]
0.031623 µM	-0.0319
0.1 µM	-1.49
0.316228 µM	-2.33
1 µM	-2.43
3.16228 µM	-2.14
10 µM	-2.43
31.6228 µM	-1.77
100 µM	-0.859

CNCc1cc(F)ccc1Oc1ccc(Cl)c(Cl)c1
Details	LDH release cytotoxicity [%]
0.03162 µM	-11
0.1 µM	-10.04
0.3162278 µM	-10.6
1 µM	-10.4
3.16228 µM	-11.2
10 µM	-10
31.6228 µM	-8.03
100 µM	75.6

CC12CC1(C)C(=O)N(c1cc(Cl)cc(Cl)c1)C2=O (configuration not stated) [Procymidone]
Details	LDH release cytotoxicity [%]
0.03162 µM	-1.37
0.1 µM	-1.85
0.3162278 µM	-2.08
1 µM	-2.56
3.16228 µM	-2.762
10 µM	-1.32
31.6228 µM	-2.43
100 µM	-1.16

CC(C)C1(C)N=C(c2nc3ccccc3cc2C(=O)O)NC1=O (configuration not stated) [Imazaquin]
Details	LDH release cytotoxicity [%]
0.03162 µM	-3.4
0.1 µM	-3.18
0.3162278 µM	-1.28
1 µM	-2.88
3.16228 µM	-0.995
10 µM	-0.807
31.6228 µM	-0.68
100 µM	2.17

Cc1ccc(O)cc1 [p-Cresol]
Details	LDH release cytotoxicity [%]
0.03162 µM	-0.87
0.1 µM	-2.34
0.3162278 µM	-1.45
1 µM	-0.608
3.16228 µM	-1.02
10 µM	-1.22
31.6228 µM	-0.051
100 µM	1.76

CC(C)CCO [Isopentyl alcohol]
Details	LDH release cytotoxicity [%]
0.0317809 µM	-1.55
0.1005 µM	-1.43
0.317809 µM	-2.18
1.005 µM	-2.36
3.17809 µM	-1.495
10.05 µM	-1.51
31.7809 µM	-1.18
100.5 µM	-0.0999

CC(C)c1cccc(C(C)C)c1NC(=O)NS(=O)(=O)c1cc(C(C)(C)O)co1
Details	LDH release cytotoxicity [%]
0.03162 µM	0.635
0.1 µM	0.0343
0.3162278 µM	-0.878
1 µM	-1.57
3.16228 µM	-1.32
10 µM	-1.29
31.6228 µM	-1.24
100 µM	-0.335

CC(=O)O [Acetic acid]
Details	LDH release cytotoxicity [%]
0.0317809 µM	-1.92
0.1005 µM	-2.2
0.317809 µM	-1.18
1.005 µM	-1.23
3.17809 µM	-0.0523
10.05 µM	-0.22
31.7809 µM	-0.0673
100.5 µM	1.25

CN(C)C(=S)SSC(=S)N(C)C [Thiram]
Details	LDH release cytotoxicity [%]
0.03162 µM	-1.63
0.1 µM	-2.1
0.3162278 µM	-2.29
1 µM	-1.46
3.16228 µM	-2.28
10 µM	-1.86
31.6228 µM	-1.13
100 µM	2.802

C#CC(O)C(CC)CCCC (configuration not stated) [4-Ethyloct-1-yn-3-ol]
Details	LDH release cytotoxicity [%]
0.03162 µM	-1.1
0.1 µM	-0.852
0.3162278 µM	-1.73
1 µM	-1.75
3.16228 µM	-0.91
10 µM	-1.32
31.6228 µM	-1.07
100 µM	0.266

OCCCl [2-Chloroethanol]
Details	LDH release cytotoxicity [%]
0.03162 µM	-1.15
0.1 µM	-1.03
0.3162278 µM	-1.59
1 µM	-1.39
3.16228 µM	-1.15
10 µM	-0.492
31.6228 µM	-0.514
100 µM	4.05

ClCCOCCCl [Bis(2-chloroethyl) ether]
Details	LDH release cytotoxicity [%]
0.03162 µM	-2.26
0.1 µM	-1.98
0.3162278 µM	-2.69
1 µM	-2.69
3.16228 µM	-1.96
10 µM	-2.12
31.6228 µM	-2.25
100 µM	-0.123

Clc1cccc(Cl)c1Cl [1,2,3-Trichlorobenzene]
Details	LDH release cytotoxicity [%]
0.031623 µM	-0.151
0.1 µM	-2.59
0.316228 µM	-3.02
1 µM	-2.67
3.16228 µM	-3.67
10 µM	-2.75
31.6228 µM	-2
100 µM	-0.185

C=CCc1ccc(O)c(OC)c1 [Eugenol]
Details	LDH release cytotoxicity [%]
0.03162 µM	-2.2
0.1 µM	-1.91
0.3162278 µM	-1.79
1 µM	-2.07
3.16228 µM	-2.07
10 µM	-1.74
31.6228 µM	-0.896
100 µM	-0.336

From the supplement of paper PMC7840683
